{"source": "patent US20140179681A1", "about": "“METHODS AND COMPOSITIONS OF TARGETED DRUG DEVELOPMENT” (priority 2010, published 2014)", "key": {"EGF binding site": {"target": "T1, EGF binding site (Rattus norvegicus, UniProt G3V6K6)", "T1 construct": "Receptor source was rat liver membranes; tissue NovaScreen BioSciences; host or cells: rat liver membranes", "T1 sequence (G3V6K6 25-1209)": "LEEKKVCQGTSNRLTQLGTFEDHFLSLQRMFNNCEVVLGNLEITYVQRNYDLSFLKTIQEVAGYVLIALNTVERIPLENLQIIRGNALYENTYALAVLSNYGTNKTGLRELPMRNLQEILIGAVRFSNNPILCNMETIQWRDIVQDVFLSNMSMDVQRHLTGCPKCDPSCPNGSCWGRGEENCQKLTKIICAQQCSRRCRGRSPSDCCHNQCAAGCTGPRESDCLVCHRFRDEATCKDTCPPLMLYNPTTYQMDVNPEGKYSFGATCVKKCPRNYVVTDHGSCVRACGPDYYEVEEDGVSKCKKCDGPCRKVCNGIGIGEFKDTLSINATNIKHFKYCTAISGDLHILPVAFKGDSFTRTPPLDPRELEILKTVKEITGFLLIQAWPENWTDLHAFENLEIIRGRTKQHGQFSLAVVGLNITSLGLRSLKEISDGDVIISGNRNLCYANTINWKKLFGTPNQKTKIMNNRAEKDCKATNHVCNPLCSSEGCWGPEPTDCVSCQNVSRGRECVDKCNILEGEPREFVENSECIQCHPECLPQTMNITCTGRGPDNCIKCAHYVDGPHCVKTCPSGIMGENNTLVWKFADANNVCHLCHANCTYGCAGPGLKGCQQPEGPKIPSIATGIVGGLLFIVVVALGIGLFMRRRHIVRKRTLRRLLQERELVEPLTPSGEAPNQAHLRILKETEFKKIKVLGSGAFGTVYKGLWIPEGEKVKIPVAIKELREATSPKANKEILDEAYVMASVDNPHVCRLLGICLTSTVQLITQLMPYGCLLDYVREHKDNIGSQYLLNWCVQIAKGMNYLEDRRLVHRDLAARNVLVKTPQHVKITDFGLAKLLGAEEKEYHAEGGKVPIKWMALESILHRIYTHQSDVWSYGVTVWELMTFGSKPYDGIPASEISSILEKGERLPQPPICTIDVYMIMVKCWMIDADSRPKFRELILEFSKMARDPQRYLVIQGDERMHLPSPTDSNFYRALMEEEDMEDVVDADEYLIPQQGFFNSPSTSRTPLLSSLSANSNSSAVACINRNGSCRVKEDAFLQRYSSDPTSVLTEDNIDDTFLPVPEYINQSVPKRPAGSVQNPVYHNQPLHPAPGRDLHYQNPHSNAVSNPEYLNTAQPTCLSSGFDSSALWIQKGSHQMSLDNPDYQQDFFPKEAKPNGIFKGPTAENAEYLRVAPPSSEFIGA", "assay": "Inhibition of [125I]EGF binding (EGF inhibitor assay, NovaScreen)", "conditions": "determined at 25 μM; rat liver membranes; result in words", "protocol": "Identified compounds, representing various pharmacophore models, were tested for ability to inhibit EGFR at 25 μM.\nAD4-compounds were identified using pharmacophore models (see Example 3, Example 4) and then were docked with the binding site of EGFR (SEQ ID NO: 1) that is recognized by defined CDRs of cetuximab. The inhibition of epidermal growth factor binding by AD4-compounds was then determined (NovaScreen BioSciences, Hanover, Md.). Inhibition of EGF binding was determined at 25 μM concentration.\nReceptor source was rat liver membranes. The radioligand was [^125I]EGF ([…]) at a final ligand concentration of 0.36 nM. A non-specific determinant was used as EGF—[100 nM]. The reference compound and positive control was EGF. Reactions were carried out in 10 mM HEPES (pH 7.4) containing 0.1% BSA at 25° C. for 60 minutes. The reaction was terminated by rapid vacuum filtration onto glass fiber filters. Radioactivity trapped onto the filters was determined and compared to control values to ascertain any interactions of test compounds with the EGF binding site. The EGF inhibitor assays were modified from, for example, Mukku (1984) J. Biol. Chem. 259, 6543-6546; Duh et al. (1990) World J. Surgery 14, 410-418; Lokeshwar et al. (1989) J. Biol. Chem. 264(32), 19318-19326."}, "EGFR": {"target": "T2, EGFR (Homo sapiens, UniProt P00533)", "T2 construct": "A431 cells (ATCC # CRL-1555) were grown in Dulbecco's Modified Eagle Medium; host or cells: A431", "T2 sequence (P00533 25-1210)": "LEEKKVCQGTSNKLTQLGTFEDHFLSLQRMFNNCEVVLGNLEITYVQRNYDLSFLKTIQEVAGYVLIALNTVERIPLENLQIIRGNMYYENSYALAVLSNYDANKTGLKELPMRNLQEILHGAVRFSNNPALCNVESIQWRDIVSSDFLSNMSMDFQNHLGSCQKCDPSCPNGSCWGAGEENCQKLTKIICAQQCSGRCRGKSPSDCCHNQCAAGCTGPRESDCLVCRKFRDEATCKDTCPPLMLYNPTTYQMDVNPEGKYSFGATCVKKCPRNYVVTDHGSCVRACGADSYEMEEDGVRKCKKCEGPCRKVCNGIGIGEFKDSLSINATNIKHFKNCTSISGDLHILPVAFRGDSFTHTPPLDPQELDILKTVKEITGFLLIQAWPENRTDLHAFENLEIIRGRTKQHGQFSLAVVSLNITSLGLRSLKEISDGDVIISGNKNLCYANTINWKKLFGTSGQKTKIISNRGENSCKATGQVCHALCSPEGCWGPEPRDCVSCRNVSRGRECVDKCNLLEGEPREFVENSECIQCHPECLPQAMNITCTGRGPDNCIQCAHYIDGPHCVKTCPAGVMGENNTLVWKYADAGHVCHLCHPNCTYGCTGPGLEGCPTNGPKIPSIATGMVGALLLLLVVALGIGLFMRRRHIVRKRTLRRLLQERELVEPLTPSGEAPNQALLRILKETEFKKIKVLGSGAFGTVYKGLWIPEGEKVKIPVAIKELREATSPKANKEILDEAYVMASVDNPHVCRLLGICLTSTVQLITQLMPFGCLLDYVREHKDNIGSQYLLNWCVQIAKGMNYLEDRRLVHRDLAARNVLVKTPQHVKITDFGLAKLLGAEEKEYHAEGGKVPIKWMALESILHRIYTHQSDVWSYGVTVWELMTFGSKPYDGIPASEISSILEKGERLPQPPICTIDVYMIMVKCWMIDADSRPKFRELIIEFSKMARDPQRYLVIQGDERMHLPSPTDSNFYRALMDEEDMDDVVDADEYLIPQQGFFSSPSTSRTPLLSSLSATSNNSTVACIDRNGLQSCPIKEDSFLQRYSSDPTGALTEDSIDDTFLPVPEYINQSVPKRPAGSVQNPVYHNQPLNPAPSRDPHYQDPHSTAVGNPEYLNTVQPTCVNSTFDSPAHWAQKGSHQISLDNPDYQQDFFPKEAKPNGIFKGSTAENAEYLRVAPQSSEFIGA", "assay": "Titration of known EGFR inhibitors in absence or presence of a fixed concentration of AD4 compound (% inhibition of EGFR)", "assay_type": "cell-based", "conditions": "Tykerb alone or in combination with the compound; result in words"}, "[1]": {"system": "EGF receptor-mediated cell proliferation", "assay": "Combination studies (median effect analysis: IC50, CI, DRI) in cell proliferation assay (MTT assay)", "conditions": "for CI @ ED90: Combination Index at 90% inhibition; for DRI @ ED97: Dose Reduction Index", "excerpt": "Studies were initiated to evaluate the ability of various compounds disclosed herein to synergize with several compounds known to inhibit the function of the EGF receptor in a cell proliferation assay (MTT assay)."}}, "note": "Values joined by “and” are separate entries in the source; they are usually repeats but may differ in a detail not shown here. Equal values may be shown once. “Also recorded” adds a separate entry of the source.", "data": [{"smiles": "O=C(NC(=S)Nc1ccc(S(=O)(=O)NCCc2ccccc2)cc1)C1CC1", "note": "[AD4-1886]", "values": [{"measurement": "inhibition of epidermal growth factor binding to its receptor", "setting": "EGF binding site", "value": "inhibitor of epidermal growth factor binding to its receptor"}]}, {"smiles": "Cc1ccc2c(C)nc(Nc3nc(-c4ccccc4)cc(=O)[nH]3)nc2c1", "note": "[AD4-10381]", "values": [{"measurement": "inhibition of epidermal growth factor binding to its receptor", "setting": "EGF binding site", "value": "inhibitor of epidermal growth factor binding to its receptor"}]}, {"smiles": "Cc1ccc2c(C)nc(Nc3nc(-c4ccccc4C)cc(=O)[nH]3)nc2c1", "note": "[AD4-11511]", "values": [{"measurement": "shift in Tykerb's dose-response curve", "setting": "EGFR", "value": "leftward shift (i.e., greater potency)"}, {"measurement": "CI @ ED90", "setting": "[1]; combination with Iressa", "value": 0.93}, {"measurement": "CI @ ED90", "setting": "[1]; combination with Tykerb", "value": 0.87}, {"measurement": "DRI @ ED97", "setting": "[1]; effect of the test compound on Iressa", "value": 96}, {"measurement": "DRI @ ED97", "setting": "[1]; effect of the test compound on Tykerb", "value": 84}, {"measurement": "DRI (effect of the test compound on Tykerb / Iressa)", "setting": "[1]; result in words", "value": "very high DRI values; also recorded: fairly high DRI"}]}, {"smiles": "C#Cc1cccc(Nc2ncnc3cc(OCCOC)c(OCCOC)cc23)c1", "note": "[Tarceva, reference compound]", "values": [{"measurement": "synergism with Tykerb", "setting": "[1]", "value": "did not produce synergistic effects"}]}, {"smiles": "CS(=O)(=O)CCNCc1ccc(-c2ccc3ncnc(Nc4ccc(OCc5cccc(F)c5)c(Cl)c4)c3c2)o1", "note": "[Tykerb, reference compound]", "values": [{"measurement": "effect of Tykerb on the test compound (DRI as a function of Fa)", "setting": "[1]", "value": "little effect on AD4-10628"}, {"measurement": "IC50", "setting": "[1]; read-out: IC50 Tykerb", "value": "178 nM and 189 nM and 307 nM"}]}]}
